Ends that are not written are not given here.
Legend:
Type in all cases: cell-based, human
PBMC = assay: Lymphocyte proliferation assay ([3H]-thymidine incorporation), PBMC with peptide-pulsed autologous monocytes
Experimental: (§1) Lymphocyte Proliferation Assay. The lymphocyte proliferation assay was performed according to standard methods (Somasundaram, et al. (1995) J. Immunol. 155:3253-61). For screening of Th35-1A cell-reactivity with phage libraries, T helper cells (1-2×10^4/well of 96-well round-bottom microtiter plates; CORNING, Corning, N.Y.) were cultured with irradiated autologous EBV-B cells (10^4/well) pre-pulsed with 1-3×10^3 phage. To determine T helper or PBMC reactivity with peptide, adherent monocytes (5×10^4/well, obtained from PBMC) pre-pulsed with various concentrations (3.1-50 μM) of peptide were incubated with Th35-1A cells or PBMC (5×10^4/well). T helper cells or PBMC were stimulated with peptide-pulsed monocytes once or twice. All incubations were at 37° C. for 5 days in RPMI 1640/GLUTAMAX medium supplemented with 10% heat-inactivated human AB serum (Gemini Bioproducts, West Sacramento, Calif.), 10 mM HEPES and 5×10^−5 M 2-mercaptoethanol (both from SIGMA-ALDRICH). Proliferative responses of lymphocytes were determined using a standard [^3H]-thymidine incorporation assay. All determinations were performed in triplicate. Results are expressed as counts per minute (cpm) incorporated into lymphocytes. The lymphocyte proliferation inhibition assay with anti-HLA class II antibody B33.1 was performed using established methods (Somasundaram, et al. (1995) supra).

lymphocytes = assay: IFN-γ release assay (ELISA)
Experimental: IFN-γ Release Assay. Supernatants obtained 48 hours after T helper cell stimulation with phage-pulsed EBV-B cells were tested for the presence of IFN-γ using an ENDOGEN ELISA kit (Pierce Biotechnology, Inc., Rockford, Ill.).

Th35-1A cells = assay: Lymphocyte proliferation assay ([3H]-thymidine incorporation), Th35-1A cells with peptide-pulsed monocytes; conditions: for HLA dependence of peptide recognition by Th35-1A: peptide-pulsed autologous DR7+ monocytes, anti-HLA class II antibody or control mouse Ig at 10 μg/mL (FIG. 2A)
Experimental: as §1

“TGRLRGTKTVQEKEN [peptide #2, RPL8 position 243-257]” was tested. Which “Proliferation of autologous PBMC following peptide stimulation” value (PBMC; lymphocytes from two of the three DR7+ melanoma patients (FIGS. 3A-3C), stimulated twice) did it give?
Its value is “significantly and specifically proliferated”.

And the “Lymphoproliferative responses to peptide stimulation” value (PBMC; two DR7− melanoma patients (FIGS. 3D, 3E) and four healthy donors (FIG. 3F), one peptide stimulation, listed as RPL8 peptide #2)?
Its value is “did not respond”.

What about the IFN-γ produced (lymphocytes; non-proliferating lymphocytes from two DR7− patients (FIGS. 3D, 3E) and healthy donor (FIG. 3F)) of the same sequence?
Its IFN-γ produced is under 12 pg/mL.

And the IFN-γ produced maximally (lymphocytes; proliferating lymphocytes from DR7+ patient of FIG. 3A)?
The IFN-γ produced maximally was 124.3±1.67 pg per mL.

What about the IFN-γ produced maximally (lymphocytes; proliferating lymphocytes from DR7+ patient of FIG. 3B) of the same sequence?
Its IFN-γ produced maximally is 224.3±4.3 pg per mL.

And the “Recognition by Th35-1A” value (Th35-1A cells; after presentation by autologous monocytes (FIG. 2A))?
Its value is “recognized”.

And the “Presentation of peptide to Th35-1A cells by allogeneic DR7+ monocytes” value (Th35-1A cells; allogeneic DR7+ monocytes (FIG. 2C))?
Its value is “presented”.

What about the “Presentation of peptide to Th35-1A cells by DR7− monocytes” value (Th35-1A cells; allogeneic DR7− monocytes (FIG. 2D)) of the same sequence?
Its value is “did not”.

And the “HLA dependence of peptide recognition by Th35-1A” value (Th35-1A cells)?
Its value is “HLA class II-dependent”.

And the “HLA dependence of peptide recognition by Th35-1A” value (Th35-1A cells; listed as RPL8 peptide #2)?
The value was “HLA DR7- and peptide concentration-dependent”.

And the “Th35-1A proliferation, dependence on peptide concentration” value (Th35-1A cells; peptide-pulsed autologous monocytes, various concentrations (FIG. 2B))?
The value was “peptide concentration-dependent”.
